This note sets out measurements from patent US8916502B2, “Agent for improving lawn grass qualities” (Cosmo Oil Co., Ltd., priority 2008, dated 2014).

The structures appear in SMILES notation.

For one test, the system named is Zoysia tenuifolia. As to the kind of experiment: Foliage treatment of Zoysia tenuifolia sod in pots: grass height and dry weight of shoots and stems. The conditions noted are these: foliage treatment 150 L/10 a; for Grass height: 26 days after treatment; for Dry weight of stems: harvested 4 months after treatment. Type of test: in vivo. The protocol:
A commercially available Zoysia tenuifolia sod was cut to a size of 10×10 cm. Uniform volcanic ash soil (andosol) was introduced into a vessel (1/44,444×10 a) in a sufficient amount per pot, and a chemical fertilizer (N—P—K=8-8-8) was applied thereon in an amount, in terms of nitrogen, of 2.6 kg-N/10 a. The cut Zoysia tenuifolia sod was transplanted into the pot. […] The grass height was measured 26 days after the treatment, and thereby the dwarfing effect was investigated.

A further test deals with bentgrass. Briefly: Foliage treatment of bentgrass sod in pots: leaf count and L*a*b* colour. Type of test: in vivo. Conditions: 30 days after treatment, 5-aminolevulinic acid hydrochloride 200 mg/10 a and/or prohexadione calcium salt 12.5 g/10 a; for Color system L* / Color system b* / Color system a*: colorimeter; for Color system a*: more negative = greener; for Plant count of lawn grass: foliage treatment 150 L/10 a. From the text:
A commercially available bentgrass sod was cut into a circular form having a diameter of 10 cm. Uniform volcanic ash soil (andosol) was introduced into a vessel (1/17,500×10 a) in a sufficient amount per pot, and a liquid fertilizer (Hyponica) was applied thereon in an amount, in terms of nitrogen, of 3 kg-N/10 a. The cut bentgrass sod was transplanted into the pot.

Setting [1] is: 5-aminolevulinic acid hydrochloride 600 mg/10 a and/or paclobutrazol 36 g/10 a.
[2] abbreviates: 5-aminolevulinic acid hydrochloride 600 mg/10 a and/or flurprimidol 84 g/10 a.
Setting [3] is: 5-aminolevulinic acid hydrochloride 600 mg/10 a and/or prohexadione calcium salt 20 g/10 a.
The mark [4] stands for this setting: 5-aminolevulinic acid hydrochloride 600 mg/10 a and/or trinexapac-ethyl 20 g/10 a.

In the case of `CC(C)(C)[C@@H](O)[C@@H](Cc1ccc(Cl)cc1)n1cncn1` (racemic) [paclobutrazol, (2RS,3RS)-1-(4-chlorophenyl)-4,4-dimethyl-2-(1H-1,2,4-triazol-1-yl)pentan-3-ol], in the test on Zoysia tenuifolia (setting [1]), the “Dry weight of shoots” value turned out to be 0.81 g, the Grass height was 3.5 cm and the “Dry weight of stems” value stood at 14.8 g.

Consider `Cl.NCC(=O)CCC(=O)O` [5-aminolevulinic acid hydrochloride], for which, in the test with bentgrass, the “Color system L*” value was determined as 34.0, the “Color system b*” value came to 17.6, the “Color system a*” value is recorded as −8.8 and the “Plant count of lawn grass” value is given as 54.2 plants/9 cm^2. In the test with Zoysia tenuifolia (setting [2]), the “Dry weight of shoots” value is given as 0.90 g, the Grass height is listed as 4.2 cm and the “Dry weight of stems” value stood at 12.0 g. For the same compound, in the test with Zoysia tenuifolia (setting [1]), the “Dry weight of shoots” value came out at 0.90 g, the Grass height is 4.2 cm and the “Dry weight of stems” value is recorded as 12.0 g. In addition, in the test on Zoysia tenuifolia (setting [3]), the “Dry weight of shoots” value was 0.90 g, the Grass height came out at 4.2 cm and the “Dry weight of stems” value is given as 12.0 g. For the same compound, in the test on Zoysia tenuifolia (setting [4]), the “Dry weight of shoots” value is reported as 0.90 g, the Grass height came to 4.2 cm and the “Dry weight of stems” value amounted to 12.0 g.

For the compound `CCC(=O)C1=C([O-])CC(C(=O)[O-])CC1=O.[Ca+2]` (centres unmarked) [Prohexadione calcium salt, calcium 3-oxido-5-oxo-4-propionyl-3-cyclohexene carboxylate], in the test with bentgrass, the “Color system L*” value was determined as 33.2, the “Color system b*” value turned out to be 17.0, the “Color system a*” value is given as −8.9 and the “Plant count of lawn grass” value is 65.5 plants/9 cm^2. In addition, in the test on Zoysia tenuifolia (setting [3]), the “Dry weight of shoots” value worked out at 0.72 g, the Grass height was 3.5 cm and the “Dry weight of stems” value is listed as 11.3 g.

On to `CCOC(=O)C1CC(=O)C(=C(O)C2CC2)C(=O)C1` (stereo not drawn) [Trinexapac-ethyl, ethyl=4-cyclopropyl-α-hydroxymethylene)-3,5-dioxocyclohexane carboxylate], for which, in the test with Zoysia tenuifolia (setting [4]), the “Dry weight of shoots” value was determined as 0.44 g, the Grass height is listed as 3.5 cm and the “Dry weight of stems” value is 12.8 g.
